Where two headings read alike, the source gives them in different places.
Biological target: T1, human TPH1 (Homo sapiens, UniProt P17752)
T1 sequence (P17752 1-444): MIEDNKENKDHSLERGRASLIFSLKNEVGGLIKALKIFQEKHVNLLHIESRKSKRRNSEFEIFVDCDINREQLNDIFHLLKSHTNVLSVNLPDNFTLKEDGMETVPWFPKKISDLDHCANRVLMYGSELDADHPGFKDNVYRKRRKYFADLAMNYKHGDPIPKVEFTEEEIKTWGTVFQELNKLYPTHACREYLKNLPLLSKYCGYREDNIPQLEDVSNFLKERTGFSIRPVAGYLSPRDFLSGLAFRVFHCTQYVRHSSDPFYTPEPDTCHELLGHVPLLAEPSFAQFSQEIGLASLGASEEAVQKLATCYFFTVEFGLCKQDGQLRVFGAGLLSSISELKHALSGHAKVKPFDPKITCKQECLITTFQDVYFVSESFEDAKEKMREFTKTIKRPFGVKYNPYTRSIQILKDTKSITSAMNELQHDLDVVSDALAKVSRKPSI
Experiment: biochemical
Outline: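 Inhibition is derived from 5-hydroxy-L-tryptophan fluorescence (540 nm emission, 300 nm excitation) after perchloric acid stop, relative to DMSO vehicle. Recombinant full-length human enzyme (40-80 nM) reacts with 40 μM tryptophan plus 100 μM methyltetrahydropterin, pH 7.6 Tris/DTT/catalase, 15° C, 60 min.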

| Structure (SMILES) | IC50 | IC50 (Table 1, full length human TPH1, 40 μM L-tryptophan, 15° C., 60 minutes, mean if determined several times) |
| --- | --- | --- |
| Cc1ccc(OCC(=O)N2CCc3nc4cc(C(F)(F)F)ccn4c3C2c2cccnc2F)cc1 (centres unmarked) [Example 3.2.3, 1-(1-(2-fluoropyridin-3-yl)-7-(trifluoromethyl)-3,4-dihydroimidazo[1,2-a:5,4-c′]dipyridin-2(1H)-yl)-2-(p-tolyloxy)ethan-1-one] | 251 nM | – |
| COc1ccc(C2c3c(nc4cc(C(F)(F)F)ccn34)CCN2C(=O)COc2ccc3c(c2C)CCN(C(=O)OC(C)(C)C)C3)c(F)c1 (centres unmarked) [Example 3.3.4, tert-butyl 6-(2-(1-(2-fluoro-4-methoxyphenyl)-7-(trifluoromethyl)-3,4-dihydroimidazo[1,2-a:5,4-c′]dipyridin-2(1H)-yl)-2-oxoethoxy)-5-methyl-3,4-dihydroisoquinoline-2(1H)-carboxylate] | 178 nM | – |
| COc1ccc(C2c3c(nc4cc(C(F)(F)F)ccn34)CCN2C(=O)COc2ccc3c(c2C)CCNC3)c(F)c1 (centres unmarked) [Example 3.3.5, 1-(1-(2-fluoro-4-methoxyphenyl)-7-(trifluoromethyl)-3,4-dihydroimidazo[1,2-a:5,4-c′]dipyridin-2(1H)-yl)-2-((5-methyl-1,2,3,4-tetrahydroisoquinolin-6-yl)oxy)ethan-1-one] | 217 nM | – |
| COc1ccc(C2c3c(nc4cc(C(F)(F)F)ccn34)CCN2C(=O)COc2ccc3c(c2C)CCN(C)C3)c(F)c1 (centres unmarked) [Example 3.3.7, 2-((2,5-dimethyl-1,2,3,4-tetrahydroisoquinolin-6-yl)oxy)-1-(1-(2-fluoro-4-methoxyphenyl)-7-(trifluoromethyl)-3,4-dihydroimidazo[1,2-a:5,4-c′]dipyridin-2(1H)-yl)ethan-1-one] | 117 nM | – |
| Cn1nc(OCC(=O)N2CCc3nc4cc(C(F)(F)F)ccn4c3C2c2ccc(Cl)cc2F)c(Cl)c1C(F)(F)F (centres unmarked) [Example 3.4.3, 2-((4-chloro-1-methyl-5-(trifluoromethyl)-1H-pyrazol-3-yl)oxy)-1-(1-(4-chloro-2-fluorophenyl)-7-(trifluoromethyl)-3,4-dihydroimidazo[1,2-a:5,4-c′]dipyridin-2(1H)-yl)ethan-1-one] | 64 nM | – |
| O=C(COc1ccc(N2CCOCC2)cc1Cl)N1CCc2nc3cc(C(F)(F)F)ccn3c2[C@H]1c1ccc(Cl)cc1F [Example 3.4.5, ((1R)-1-(4-chloro-2-fluorophenyl)-7-(trifluoromethyl)-3,10a-dihydroimidazo[1,2-a:5,4-c′]dipyridin-2(1H)-yl)-2-(2-chloro-4-morpholinophenoxy)ethan-1-one] | – | 6 nM |
| CCc1c(OCC(=O)N2CCc3nc4cc(C(F)(F)F)ccn4c3C2c2ccc(C3CC3)cc2F)ccc(C)[n+]1[O-] (centres unmarked) [Example 3.5.3, 1-(1-(4-cyclopropyl-2-fluorophenyl)-7-(trifluoromethyl)-3,4-dihydroimidazo[1,2-a:5,4-c′]dipyridin-2(1H)-yl)-2-((2-ethyl-6-methyl-1-(I1-oxidanyl)-1I4-pyridin-3-yl)oxy)ethan-1-one] | 85 nM | – |
| O=C(COc1ccc[n+]([O-])c1Cl)N1CCc2nc3cc(C(F)(F)F)ccn3c2C1c1ccc(C2CC2)cc1F (centres unmarked) [Example 3.5.4, 2-((2-chloro-1-(I1-oxidanyl)-1I4-pyridin-3-yl)oxy)-1-(1-(4-cyclopropyl-2-fluorophenyl)-7-(trifluoromethyl)-3,4-dihydroimidazo[1,2-a:5,4-c′]dipyridin-2(1H)-yl)ethan-1-one] | 210 nM | – |
| COc1ccc(C2c3c(nc4cc(C(F)(F)F)ccn34)CCN2C(=O)COc2ccc3ccccc3c2)cn1 (centres unmarked) [Example 3.6.1, 1-(1-(6-methoxypyridin-3-yl)-7-(trifluoromethyl)-3,4-dihydroimidazo[1,2-a:5,4-c′]dipyridin-2(1H)-yl)-2-(naphthalen-2-yloxy)ethan-1-one] | 52 nM | – |
| COc1ccc(C2c3c(nc4cc(C(F)(F)F)ccn34)CCN2C(=O)COc2ccc(CN3CCOCC3)cc2Cl)cn1 (centres unmarked) [Example 3.6.2, 2-(2-chloro-4-(morpholinomethyl)phenoxy)-1-(1-(6-methoxypyridin-3-yl)-7-(trifluoromethyl)-3,4-dihydroimidazo[1,2-a:5,4-c′]dipyridin-2(1H)-yl)ethan-1-one] | 50 nM | – |
| O=C(COc1ccc(CN2CCOCC2)cc1Cl)N1CCc2nc3cc(C(F)(F)F)ccn3c2C1c1ccc(OCC(F)(F)F)nc1 (centres unmarked) [Example 3.8.1, 2-(2-chloro-4-(morpholinomethyl)phenoxy)-1-(1-(6-(2,2,2-trifluoroethoxy)pyridin-3-yl)-7-(trifluoromethyl)-3,4-dihydroimidazo[1,2-a:5,4-c′]dipyridin-2(1H)-yl)ethan-1-one] | 86 nM | – |

Continued, in another order:

| IC50 | Structure (SMILES) | IC50 (Table 1, full length human TPH1, 40 μM L-tryptophan, 15° C., 60 minutes, mean if determined several times) |
| --- | --- | --- |
| 5 nM | COc1ccc(C2c3c(nc4cc(C(F)(F)F)ccn34)CCN2C(=O)COc2ccc3ccccc3c2)c(F)c1 (centres unmarked) [Example 3.3.1, 1-(1-(2-fluoro-4-methoxyphenyl)-7-(trifluoromethyl)-3,4-dihydroimidazo[1,2-a:5,4-c′]dipyridin-2(1H)-yl)-2-(naphthalen-2-yloxy)ethan-1-one] | – |
| 7 nM | COc1ccc(C2c3c(nc4cc(C(F)(F)F)ccn34)CCN2C(=O)COc2ccc(CN3CCOCC3)cc2Cl)c(F)c1 (centres unmarked) [Example 3.3.2, 2-(2-chloro-4-(morpholinomethyl)phenoxy)-1-(1-(2-fluoro-4-methoxyphenyl)-7-(trifluoromethyl)-3,4-dihydroimidazo[1,2-a:5,4-c′]dipyridin-2(1H)-yl)ethan-1-one] | – |
| 8 nM | COc1ccc(C2c3c(nc4cc(C(F)(F)F)ccn34)CCN2C(=O)COc2ccc(CN3CCOCC3)c(C)c2C)c(F)c1 (centres unmarked) [Example 3.3.3, 2-(2,3-dimethyl-4-(morpholinomethyl)phenoxy)-1-(1-(2-fluoro-4-methoxyphenyl)-7-(trifluoromethyl)-3,4-dihydroimidazo[1,2-a:5,4-c′]dipyridin-2(1H)-yl)ethan-1-one] | – |
| 11 nM | COc1ccc(C2c3c(nc4cc(C(F)(F)F)ccn34)CCN2C(=O)COc2ccc3c(c2C)CCN(C(C)=O)C3)c(F)c1 (centres unmarked) [Example 3.3.6, 2-((2-acetyl-5-methyl-1,2,3,4-tetrahydroisoquinolin-6-yl)oxy)-1-(1-(2-fluoro-4-methoxyphenyl)-7-(trifluoromethyl)-3,4-dihydroimidazo[1,2-a:5,4-c′]dipyridin-2(1H)-yl)ethan-1-one] | – |
| 44 nM | O=C(COc1cccnc1Cl)N1CCc2nc3cc(C(F)(F)F)ccn3c2C1c1ccc(Cl)cc1F (centres unmarked) [Example 3.4.1, 1-(1-(4-chloro-2-fluorophenyl)-7-(trifluoromethyl)-3,4-dihydroimidazo[1,2-a:5,4-c′]dipyridin-2(1H)-yl)-2-((2-chloropyridin-3-yl)oxy)ethan-1-one] | – |
| 7 nM | O=C(COc1ccc(CN2CCOCC2)cc1Cl)N1CCc2nc3cc(C(F)(F)F)ccn3c2C1c1ccc(Cl)cc1F (centres unmarked) [Example 3.4.2, 1-(1-(4-chloro-2-fluorophenyl)-7-(trifluoromethyl)-3,4-dihydroimidazo[1,2-a:5,4-c′]dipyridin-2(1H)-yl)-2-(2-chloro-4-(morpholinomethyl)phenoxy)ethan-1-one] | – |
| 21 nM | CCc1nc(C)ccc1OCC(=O)N1CCc2nc3cc(C(F)(F)F)ccn3c2C1c1ccc(Cl)cc1F (centres unmarked) [Example 3.4.4, 1-(1-(4-chloro-2-fluorophenyl)-7-(trifluoromethyl)-3,4-dihydroimidazo[1,2-a:5,4-c′]dipyridin-2(1H)-yl)-2-((2-ethyl-6-methylpyridin-3-yl)oxy)ethan-1-one] | – |
| 5 nM | O=C(COc1ccc(N2CCOCC2)nc1Cl)N1CCc2nc3cc(C(F)(F)F)ccn3c2C1c1ccc(Cl)cc1F (centres unmarked) [Example 3.4.6, 1-(1-(4-chloro-2-fluorophenyl)-7-(trifluoromethyl)-3,4-dihydroimidazo[1,2-a:5,4-c′]dipyridin-2(1H)-yl)-2-((2-chloro-6-morpholinopyridin-3-yl)oxy)ethan-1-one] | – |
| 5 nM | CS(=O)(=O)Nc1ccc(OCC(=O)N2CCc3nc4cc(C(F)(F)F)ccn4c3C2c2ccc(Cl)cc2F)c(Cl)n1 (centres unmarked) [Example 3.4.7, N-(6-chloro-5-(2-(1-(4-chloro-2-fluorophenyl)-7-(trifluoromethyl)-3,4-dihydroimidazo[1,2-a:5,4-c′]dipyridin-2(1H)-yl)-2-oxoethoxy)pyridin-2-yl)methanesulfonamide] | – |
| 11 nM | CCc1nc(C)ccc1OCC(=O)N1CCc2nc3cc(C(F)(F)F)ccn3c2C1c1ccc(C2CC2)cc1F (centres unmarked) [Example 3.5.1, 1-(1-(4-cyclopropyl-2-fluorophenyl)-7-(trifluoromethyl)-3,4-dihydroimidazo[1,2-a:5,4-c′]dipyridin-2(1H)-yl)-2-((2-ethyl-6-methylpyridin-3-yl)oxy)ethan-1-one] | – |
| 6 nM | O=C(COc1ccc(N2CCOCC2)cc1Cl)N1CCc2nc3cc(C(F)(F)F)ccn3c2C1c1ccc(C2CC2)cc1F (centres unmarked) [Example 3.5.2, 2-(2-chloro-4-morpholinophenoxy)-1-(1-(4-cyclopropyl-2-fluorophenyl)-7-(trifluoromethyl)-3,4-dihydroimidazo[1,2-a:5,4-c′]dipyridin-2(1H)-yl)ethan-1-one] | – |
| 18 nM | CCOc1ccc(C2c3c(nc4cc(C(F)(F)F)ccn34)CCN2C(=O)COc2ccc(CN3CCOCC3)cc2Cl)cn1 (centres unmarked) [Example 3.7.1, 2-(2-chloro-4-(morpholinomethyl)phenoxy)-1-(1-(6-ethoxypyridin-3-yl)-7-(trifluoromethyl)-3,4-dihydroimidazo[1,2-a:5,4-c′]dipyridin-2(1H)-yl)ethan-1-one] | – |
